Reference: paper PMC5516028, “Molecular tools for GABAA receptors: High affinity ligands for β1-containing subtypes” (Scientific Reports, 2017)
Values joined by “and” are separate entries in the source; they are usually repeats but may differ in a detail not shown here. Identical values can stand only once. Like-named read-outs stand apart in the source and are kept apart here.

Tests used:
Format in all cases: cell-based
α1β1 GABAA receptors = target: T1, α1β1 GABAA receptors (Rattus norvegicus, UniProt P15431+P62813); assay: Two electrode voltage clamp in Xenopus laevis oocytes, α1β1; details: α1β1
T1 construct: expressed in transfected cells; host or cells: Xenopus laevis oocytes, mRNA injected
T1 sequence (P62813 28-455): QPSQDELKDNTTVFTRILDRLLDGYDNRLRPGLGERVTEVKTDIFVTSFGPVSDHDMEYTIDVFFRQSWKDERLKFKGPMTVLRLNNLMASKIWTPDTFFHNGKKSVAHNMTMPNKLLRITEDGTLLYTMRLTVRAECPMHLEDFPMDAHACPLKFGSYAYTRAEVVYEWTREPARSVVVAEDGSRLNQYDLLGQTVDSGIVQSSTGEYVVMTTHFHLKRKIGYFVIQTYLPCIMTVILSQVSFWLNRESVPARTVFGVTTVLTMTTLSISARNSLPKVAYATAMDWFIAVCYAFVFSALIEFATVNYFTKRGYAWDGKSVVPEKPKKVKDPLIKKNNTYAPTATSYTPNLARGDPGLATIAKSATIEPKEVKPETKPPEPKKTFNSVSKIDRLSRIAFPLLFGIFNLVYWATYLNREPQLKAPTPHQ
T1 sequence (P15431 26-474): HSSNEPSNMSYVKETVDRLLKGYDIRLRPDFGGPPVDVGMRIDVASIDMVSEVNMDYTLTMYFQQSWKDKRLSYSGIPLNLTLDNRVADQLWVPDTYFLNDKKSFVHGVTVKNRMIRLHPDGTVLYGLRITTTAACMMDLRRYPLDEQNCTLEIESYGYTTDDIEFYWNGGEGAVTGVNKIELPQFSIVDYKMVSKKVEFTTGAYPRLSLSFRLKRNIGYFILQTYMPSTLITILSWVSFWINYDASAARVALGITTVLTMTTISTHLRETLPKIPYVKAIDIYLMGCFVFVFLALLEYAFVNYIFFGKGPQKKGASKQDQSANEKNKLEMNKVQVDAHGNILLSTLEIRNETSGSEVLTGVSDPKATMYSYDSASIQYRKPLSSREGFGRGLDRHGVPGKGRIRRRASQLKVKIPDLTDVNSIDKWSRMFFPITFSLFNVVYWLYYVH
Description: (§1) cDNA’s of rat GABAA receptor subunits α1, α4, β1, β2, β3 and γ2S were cloned as described. cDNAs of the rat subunits α2, α3 and α5 were gifts from P. Malherbe, that of α6 and γ1 were gifts of P. Seeburg and that of δ was a gift of C. Czajkowski. The mutants were constructed using the Q5 Site-Directed Mutagenesis Kit (New England Biolabs) following manufacturer’s instruction. We used the wild-type rat β3-pCI vector as template and the primers […] and […] resulting in a substitution of amino acid N41 (AAC) to R (AGG). We used the wild-type rat β1-pCI vector as template and the primers […] and […] resulting in a substitution of amino acid R41 (CGG) to N (AAC). The mutated subunits were confirmed by sequencing.
(§2) In vitro transcription of mRNA was based on the cDNA expression vectors encoding for rat GABAA receptor subunits α1–6, β1-3, γ1,2, δ and the two β mutants (β1R41N and β3N41R)[40]. After linearizing the cDNA vectors with appropriate restriction endonucleases, the cDNA was purified and concentrated with the DNA Clean and Contentrator ^TM Kit (Zymoresearch, Catalog No. D4005). Capped transcripts of the purified cDNA were produced using the mMESSAGE mMACHINE® T7 transcription kit (Ambion, TX, USA) and polyadenylated using the Ambion PolyA tailing kit (Ambion). After transcription and polyadenylation the RNA was purified with the MEGAclear ^TM Kit (Ambion, Catalog No. AM1908). The final RNA concentration was measured on NanoDrop® ND-1000 and finally diluted and stored in diethylpyrocarbonate-treated water at −80 °C. For the microinjection, the RNA of αβ receptor combinations was mixed at 1:1 ratio (which leads to αβ receptors that consist of predominantly 3 beta and 2 alpha subunits[27]), for αkβlγm (k = 1–3, l = 1, 3, m = 1, 2) receptors at 1:1:5 ratio, for αkβ3γ2 (k = 4–6) and αkβlδ (k = 1, 4 and 6, l = 1, 3) receptor combinations at 3:1:5 ratio.
(§3) Mature female Xenopus laevis (Nasco, WI) were anesthetized in a bath of ice-cold 0.17% Tricain (Ethyl-m-aminobenzoate, Sigma, MO) before decapitation in full accordance with all rules of the Austrian animal protection law (see http://www.ris.bka.gv.at/Dokumente/BgblAuth/BGBLA_2012_I_114/BGBLA_2012_I_114.pdf) and the Austrian animal experiment by-laws (see https://www.ris.bka.gv.at/Dokumente/BgblAuth/BGBLA_2012_II_522/BGBLA_2012_II_522.pdf) which implement the European Directive 2010/63/EU (see http://eur-lex.europa.eu/LexUriServ/LexUriServ.do?uri=OJ:L:2010:276:0033:0079:en:PDF) into the Austrian law (all information accessed on July 27, 2016). The frog’s ovaries were transferred to ND96 medium (96 mM NaCl, 2 mM KCl, 1 mM MgCl2, 5 mM HEPES; pH 7.5). Stage 5–6 oocytes with the follicle cell layer around them were roughly dissected with forceps into packages of 10–15 cells and washed in Ca^2+-free ND96 medium. Cells were then digested with collagenase (type IA, Sigma, NO, 1 mg/mL ND96) at 18 °C shaking at 30 rpm for 30–60 minutes and gently defolliculated with the aid of a glass pipette with appropriate tip diameter and a platinum loop. Defolliculated cells were stored at 18 °C for at least 6 hours in ND96 solution containing penicillin G (10000 IU/100 mL) and streptomycin (10 mg/100 mL) in order to preselect and exclude damaged cells from further treatment. Healthy defolliculated oocytes were injected with an aqueous solution of mRNA. A total of 4.5 ng of mRNA per oocyte was injected with a Nanoject II (Drummond). After injection of mRNA, oocytes were incubated at 18 °C (ND96 + antibiotic) for 2–3 days for αβ receptors and for 3–4 days for αβγ or αβδ receptors before recording. When cells were measured at later time points, oocytes were stored at +4 °C instead of 18 °C.
(§4) For electrophysiological recordings, oocytes were placed on a nylon-grid in a bath of Ca^2+-containing NDE solution medium [96 mM NaCl, 5 mM HEPES-NaOH (pH 7.5), 2 mM KCl, 1 mM MgCl2, 1.8 mM CaCl2].

α1β2 GABAA receptors = target: T2, α1β2 GABAA receptors (Rattus norvegicus, UniProt P62813+P63138); assay: Two electrode voltage clamp in Xenopus laevis oocytes, α1β2
T2 construct: expressed in transfected cells; host or cells: Xenopus laevis oocytes, mRNA injected
T2 sequence (P62813 28-455): as the sequence (P62813 28-455) above
T2 sequence (P63138 25-474 limits assumed): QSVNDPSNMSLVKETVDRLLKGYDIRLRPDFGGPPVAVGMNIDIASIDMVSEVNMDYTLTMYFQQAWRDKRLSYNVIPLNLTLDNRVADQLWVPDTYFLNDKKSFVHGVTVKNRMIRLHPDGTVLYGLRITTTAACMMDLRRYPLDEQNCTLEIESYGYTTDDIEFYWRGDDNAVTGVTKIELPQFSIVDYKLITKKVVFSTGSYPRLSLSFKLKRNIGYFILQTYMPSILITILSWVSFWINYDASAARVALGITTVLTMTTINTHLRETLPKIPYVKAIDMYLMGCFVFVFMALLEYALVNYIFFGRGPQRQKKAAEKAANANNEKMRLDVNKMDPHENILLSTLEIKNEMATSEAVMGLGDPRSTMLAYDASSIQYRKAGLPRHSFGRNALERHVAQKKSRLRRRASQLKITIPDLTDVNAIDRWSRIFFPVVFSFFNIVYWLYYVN
Description: as §1, §2, §3, §4

α1β3 GABAA receptors = target: T3, α1β3 GABAA receptors (Rattus norvegicus, UniProt P62813+P63079); assay: Two electrode voltage clamp in Xenopus laevis oocytes, α1β3
T3 construct: expressed in transfected cells; host or cells: Xenopus laevis oocytes, mRNA injected
T3 sequence (P62813 28-455): as the sequence (P62813 28-455) above
T3 sequence (P63079 26-473): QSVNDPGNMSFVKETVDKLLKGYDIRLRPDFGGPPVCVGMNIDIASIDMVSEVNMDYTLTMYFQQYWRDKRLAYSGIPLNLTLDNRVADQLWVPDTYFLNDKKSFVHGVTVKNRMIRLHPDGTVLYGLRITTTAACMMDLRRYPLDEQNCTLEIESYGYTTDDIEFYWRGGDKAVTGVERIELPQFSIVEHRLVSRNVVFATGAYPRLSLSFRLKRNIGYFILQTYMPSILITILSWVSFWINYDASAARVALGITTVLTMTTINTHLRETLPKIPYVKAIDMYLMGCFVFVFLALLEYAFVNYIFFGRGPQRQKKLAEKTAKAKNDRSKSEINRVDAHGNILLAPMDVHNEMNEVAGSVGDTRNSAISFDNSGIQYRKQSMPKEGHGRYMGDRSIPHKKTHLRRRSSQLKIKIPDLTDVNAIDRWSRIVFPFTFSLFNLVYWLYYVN
Description: as §1, §2, §3, §4

α1β1R41N GABAA receptors = target: T4, α1β1R41N GABAA receptors (Rattus norvegicus, UniProt P15431+P62813, R66N); assay: Two electrode voltage clamp in Xenopus laevis oocytes, mutant α1β1R41N; details: read-out: % of control current at EC3-5
T4 construct: expressed in transfected cells; host or cells: Xenopus laevis oocytes, mRNA injected
T4 sequence (P62813 28-455): as the sequence (P62813 28-455) above
T4 sequence (P15431 26-474 R66N): as the sequence (P15431 26-474) above, with R41N counted along it
Description: as §1, §2, §3, §4

α1β3N41R GABAA receptors = target: T5, α1β3N41R GABAA receptors (Rattus norvegicus, UniProt P62813+P63079, N66R); assay: Two electrode voltage clamp in Xenopus laevis oocytes, mutant α1β3N41R; details: co-applied with GABA EC3-5, read-out: EC50 values for the mutated receptors
T5 construct: expressed in transfected cells; host or cells: Xenopus laevis oocytes, mRNA injected
T5 sequence (P62813 28-455): as the sequence (P62813 28-455) above
T5 sequence (P63079 26-473 N66R): as the sequence (P63079 26-473) above, with N41R counted along it
Description: as §1, §2, §3, §4

α1β3γ2 GABAA receptors = target: T6, α1β3γ2 GABAA receptors (Rattus norvegicus, UniProt P62813+P63079); assay: Two electrode voltage clamp in Xenopus laevis oocytes, α1β3γ2
T6 construct: expressed in transfected cells; host or cells: Xenopus laevis oocytes, mRNA injected
T6 sequence (P62813 28-455): as the sequence (P62813 28-455) above
T6 sequence (P63079 26-473): as the sequence (P63079 26-473) above
T6 sequence (P18508 39-466 partner): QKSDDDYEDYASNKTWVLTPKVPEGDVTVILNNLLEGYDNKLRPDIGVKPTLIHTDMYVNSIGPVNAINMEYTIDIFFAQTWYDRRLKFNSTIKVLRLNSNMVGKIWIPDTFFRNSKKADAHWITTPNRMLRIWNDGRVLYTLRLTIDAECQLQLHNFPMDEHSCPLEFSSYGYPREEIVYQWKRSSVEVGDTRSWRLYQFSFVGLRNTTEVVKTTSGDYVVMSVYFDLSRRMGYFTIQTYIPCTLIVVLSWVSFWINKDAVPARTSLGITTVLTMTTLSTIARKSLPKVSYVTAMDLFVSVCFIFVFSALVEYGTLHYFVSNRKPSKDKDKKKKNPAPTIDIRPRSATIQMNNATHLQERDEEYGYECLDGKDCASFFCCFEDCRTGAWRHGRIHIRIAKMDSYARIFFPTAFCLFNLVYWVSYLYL
Description: as §1, §2, §3, §4

α3β3 GABAA receptors = target: T7, α3β3 GABAA receptors (Rattus norvegicus, UniProt P20236+P63079); assay: Two electrode voltage clamp in Xenopus laevis oocytes, α3β3
T7 construct: expressed in transfected cells; host or cells: Xenopus laevis oocytes, mRNA injected
T7 sequence (P20236 29-493): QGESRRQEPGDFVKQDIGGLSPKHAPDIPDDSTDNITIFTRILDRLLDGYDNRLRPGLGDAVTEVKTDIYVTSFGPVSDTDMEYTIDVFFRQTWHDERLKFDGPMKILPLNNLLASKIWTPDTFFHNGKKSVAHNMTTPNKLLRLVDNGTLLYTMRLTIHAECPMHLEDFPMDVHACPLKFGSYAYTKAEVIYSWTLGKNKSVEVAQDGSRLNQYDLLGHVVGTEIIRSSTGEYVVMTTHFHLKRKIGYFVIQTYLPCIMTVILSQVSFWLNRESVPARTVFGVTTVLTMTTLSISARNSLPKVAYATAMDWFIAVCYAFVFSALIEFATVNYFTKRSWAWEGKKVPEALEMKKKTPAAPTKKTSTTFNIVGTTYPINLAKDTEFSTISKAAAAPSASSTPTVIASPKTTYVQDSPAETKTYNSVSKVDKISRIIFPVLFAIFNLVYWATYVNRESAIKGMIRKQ
T7 sequence (P63079 26-473): as the sequence (P63079 26-473) above
Description: as §1, §2, §3, §4

[1] = read-out: efficacy, % of control current (GABA EC3-5 = 100%), 300 nM
[2] = co-applied with GABA EC3-5, read-out: EC50

In the case of Cc1ccc(-n2nc3c4cc(Cl)ccc4[nH]cc-3c2=O)cc1 [Compound 2, 8-Chloro-2-(4-methylphenyl)-2H-pyrazolo[4,3-c]quinolin-3(5H)-one], the activity at 0.3 µM (α1β1 GABAA receptors; [1]) is reported as 194 ± 23.3%, the “Hill slope (nH)” value (α1β1 GABAA receptors) is reported as 1.0±0.4 and the EC50 (α1β1 GABAA receptors; [2]) is reported as 770 nM. For the same compound, the EC50 (α1β1 GABAA receptors; log of EC50, sign as printed, read-out: LogEC50 (converted)) was 759 nM, the EC50 (α1β2 GABAA receptors) was 4310 nM and the activity at 0.1 µM (α1β2 GABAA receptors; read-out: efficacy, % of control current (GABA EC3-5 = 100%), α1β2, 100 nM) was 105 ± 1.4%. For the same compound, the activity at 1 µM (α1β2 GABAA receptors; read-out: efficacy, % of control current (GABA EC3-5 = 100%), α1β2, 1 µM) was 134 ± 8.2%, the “Hill slope (nH)” value (α1β2 GABAA receptors; α1β2) was 2.0±0.9 and the activity at 0.001 µM (α1β3 GABAA receptors; read-out: efficacy, % of control current (GABA EC3-5 = 100%), α1β3, 1 nM) was 100.1 ± 0.1%. It also gave an activity at 0.003 µM (α1β3 GABAA receptors; read-out: efficacy, % of control current (GABA EC3-5 = 100%), α1β3, 3 nM) of 100.1 ± 0.1%, an activity at 0.01 µM (α1β3 GABAA receptors; read-out: efficacy, % of control current (GABA EC3-5 = 100%), α1β3, 10 nM) of 100.7 ± 0.5% and an activity at 0.1 µM (α1β3 GABAA receptors; read-out: efficacy, % of control current (GABA EC3-5 = 100%), α1β3, 100 nM) of 109 ± 2.2%. For the same compound, the activity at 0.3 µM (α1β3 GABAA receptors; read-out: efficacy, % of control current (GABA EC3-5 = 100%), α1β3, 300 nM) was 122 ± 5.4%, the activity at 1 µM (α1β3 GABAA receptors; read-out: efficacy, % of control current (GABA EC3-5 = 100%), α1β3, 1 µM) was 151 ± 11.5% and the activity at 3 µM (α1β3 GABAA receptors; read-out: efficacy, % of control current (GABA EC3-5 = 100%), α1β3, 3 µM) was 276 ± 41.7%. The activity at 10 µM (α1β3 GABAA receptors; read-out: efficacy, % of control current (GABA EC3-5 = 100%), α1β3, 10 µM) was 372 ± 40.1%, the “Hill slope (nH)” value (α1β3 GABAA receptors; α1β3) was 1.9±0.6 and the EC50 (α1β3 GABAA receptors; α1β3, co-applied with GABA EC3-5, read-out: EC50) was 2390 nM. The EC50 (α1β3 GABAA receptors; α1β3, log of EC50, sign as printed, read-out: LogEC50 (converted)) was 2400 nM and 2510 nM, the current as % of control at 0.1 µM (α1β1R41N GABAA receptors; 100nM) was 70 ± 5% and the current as % of control at 0.3 µM (α1β1R41N GABAA receptors; 300nM) was 62 ± 8%. For the same compound, the current as % of control at 1 µM (α1β1R41N GABAA receptors; 1μM) was 62 ± 8%, the current as % of control at 3 µM (α1β1R41N GABAA receptors; 3µM) was 60 ± 9% and the current as % of control at 10 µM (α1β1R41N GABAA receptors; 10μM) was 60 ± 10%. It also gave a current as % of control at 30 µM (α1β1R41N GABAA receptors; 30μM) of 60 ± 8%, an EC50 (α1β3N41R GABAA receptors) of 3440 nM and an EC50 (α1β3γ2 GABAA receptors; [2]) of 4400 nM. It also gave an activity at 0.001 µM (α1β3γ2 GABAA receptors; read-out: efficacy, % of control current (GABA EC3-5 = 100%), 1 nM) of 100%, an activity at 0.01 µM (α1β3γ2 GABAA receptors; read-out: efficacy, % of control current (GABA EC3-5 = 100%), 10 nM) of 108 ± 4% and an activity at 0.1 µM (α1β3γ2 GABAA receptors; read-out: efficacy, % of control current (GABA EC3-5 = 100%), 100 nM) of 108 ± 4%. The activity at 0.3 µM (α1β3γ2 GABAA receptors; [1]) was 128 ± 5.6%, the activity at 1 µM (α1β3γ2 GABAA receptors; read-out: efficacy, % of control current (GABA EC3-5 = 100%), 1 µM) was 156 ± 19% and the activity at 10 µM (α1β3γ2 GABAA receptors; read-out: efficacy, % of control current (GABA EC3-5 = 100%), 10 µM) was 423 ± 106%. For the same compound, the activity at 30 µM (α1β3γ2 GABAA receptors; read-out: efficacy, % of control current (GABA EC3-5 = 100%), 30 µM) was 534 ± 136%, the Emax (α1β3γ2 GABAA receptors; read-out: maximum efficacy / modulatory effects up to) was ~600% and the EC50 (α3β3 GABAA receptors) was 2100 nM. It also gave an activity at 0.001 µM (α3β3 GABAA receptors; read-out: efficacy, % of control current (GABA EC3-5 = 100%), α3β3, 1 nM) of 101.2 ± 0.8%, an activity at 0.01 µM (α3β3 GABAA receptors; read-out: efficacy, % of control current (GABA EC3-5 = 100%), α3β3, 10 nM) of 102 ± 1.2% and an activity at 0.1 µM (α3β3 GABAA receptors; read-out: efficacy, % of control current (GABA EC3-5 = 100%), α3β3, 100 nM) of 106 ± 1.3%. For the same compound, the activity at 3 µM (α3β3 GABAA receptors; read-out: efficacy, % of control current (GABA EC3-5 = 100%), α3β3, 3 µM) was 226 ± 10.7%, the activity at 10 µM (α3β3 GABAA receptors; read-out: efficacy, % of control current (GABA EC3-5 = 100%), α3β3, 10 µM) was 285 ± 7% and the activity at 30 µM (α3β3 GABAA receptors; read-out: efficacy, % of control current (GABA EC3-5 = 100%), α3β3, 30 µM) was 288 ± 8.7%.
